Reference: publication PMC7859335, “Discovery of Diaryl Ether Substituted Tetrahydrophthalazinones as TbrPDEB1 Inhibitors Following Structure-Based Virtual Screening” (Frontiers in Chemistry, 2021)
Read-outs that look alike come from different tables or passages of the source.

Assays:
TbrPDEB1 [1] = molecular target: T1, TbrPDEB1 (Trypanosoma brucei, UniProt Q8WQX9); test: TbrPDEB1 catalytic domain phosphodiesterase activity assay (PDELight HTS cAMP kit); type: biochemical; conditions: for Ki: full dose-response, mean ± S.E.M.; for inhibition at 10 µM / TbrPDEB1 (% inh.): single point assay at 10 μM inhibitor; for inhibition at 10 µM: read-out: TbrPDEB1 (% inh.)
T1 construct: The TbrPDEB1 catalytic domain phosphodiesterase activity assays were conducted based on a method reported by Sijm et al
T1 sequence (Q8WQX9 565-918 limits assumed): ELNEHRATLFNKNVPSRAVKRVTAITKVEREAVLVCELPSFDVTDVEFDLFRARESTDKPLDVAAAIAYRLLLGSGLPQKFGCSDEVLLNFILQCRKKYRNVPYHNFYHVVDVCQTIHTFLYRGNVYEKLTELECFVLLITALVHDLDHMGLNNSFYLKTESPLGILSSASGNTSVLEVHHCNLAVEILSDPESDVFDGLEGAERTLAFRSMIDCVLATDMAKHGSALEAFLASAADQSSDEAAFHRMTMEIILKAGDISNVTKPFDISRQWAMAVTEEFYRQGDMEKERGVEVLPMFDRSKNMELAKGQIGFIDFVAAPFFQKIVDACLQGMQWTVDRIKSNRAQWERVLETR
Method: The TbrPDEB1 catalytic domain phosphodiesterase activity assays were conducted based on a method reported by Sijm et al. ([2019]) with minor adaptations (Sijm et al., [2019]). The PDELight™ HTS cAMP phosphodiesterase Kit (Lonza, Walkersville, USA) was performed at 25°C in non-binding, low volume 384-well plates (Corning, Kennebunk, ME, USA). […] Single concentration measurements were made at 10 μM inhibitor concentration (triplo measurements/assay, n = 2). Dose-response curves were made in the range 100 μM−10 pM (triplo measurements/assay, n = 3). Compounds were diluted in DMSO (final in-test concentration 1%). Inhibitor dilutions (2.5 μL) were transferred to the 384-well plates, 2.5 μL of PDE in stimulation buffer was added and mixed, 5 μL of cAMP (at 2 × Km up to 20 μM) added and the assay mixture was incubated for 20 min at 300 rpm. […] Then, 5 μL of Lonza Detection reagent (diluted to 80% with reaction buffer) was added and the reaction incubated for 10 min at 300 rpm. Luminescence was read with a Victor3 luminometer using a 0.1 s/well program.
The Ki values of the inhibitors analyzed are represented as the mean of at least three independent experiments with the associated standard error of the mean (S.E.M.).

[2] = Cellular cytotoxicity assay (resazurin); type: cell-based; conditions: human
Method: (§1) The phenotypic cellular assays were conducted as previously reported by Blaazer et al. (Blaazer et al., [2018]).
For the cellular cytotoxicity assay, MRC-5 SV2 cells, originally from a human diploid lung cell line, were cultivated in MEM supplemented with L-glutamine (20 mM), 16.5 mM sodium hydrogen carbonate and 5% FCS. For the assay, 10^4 MRC-5 cells/well were seeded onto the test plates containing the pre-diluted sample and incubated at 37°C and 5% CO2 for 72 h. Cell viability was assessed fluorimetrically 4 h after the addition of resazurin. Fluorescence was measured (excitation 550 nm, emission 590 nm) and the results were expressed as percentage reduction in cell viability compared to controls.

[3] = test system: T.b. brucei Squib-427 strain; test: Antitrypanosomal phenotypic cellular assay (resazurin); type: cell-based; conditions: Trypanosoma brucei; in vitro, 72 h, mean ± S.E.M.
Method: as §1
For the antitrypanosomal assay, T.b. brucei Squib-427 strain (suramin-sensitive) was cultured at 37°C and 5% CO2 in HMI-9 medium supplemented with 10% fetal calf serum (FCS). Approximately 1.5 × 10^4 trypomastigotes were added to each well and parasite growth was assessed after 72 h at 37°C by adding resazurin. Viability was assessed fluorimetrically 24 h after addition of resazurin. Fluorescence was measured (excitation 550 nm, emission 590 nm) and the results were expressed as percentage reduction in viability compared to control.

TbrPDEB2 = test system: TbrPDEB2; design: method as in earlier work; conditions: ref De Koning et al., 2012, Orrling et al., Veerman et al., 2016; cited from earlier work
[4] = test system: T.b. brucei Squib-427 strain; design: method as in Blaazer et al. (2018); conditions: in vitro; ref Blaazer et al. (2018); cited from earlier work
TbrPDEB1 [5] = molecular target: T1, TbrPDEB1; conditions: ref Blaazer et al. (2018); cited from earlier work
hPDE4B1 = test system: hPDE4B1; design: method as in Blaazer et al. (2018); conditions: ref Blaazer et al. (2018), cited from earlier work
MRC-5 SV2 cells = test system: MRC-5 SV2 cells; design: method as in Blaazer et al. (2018); conditions: ref Blaazer et al. (2018); cited from earlier work

Row | SMILES | Ki (TbrPDEB1 [1]) [µM] | inhibition at 10 µM (TbrPDEB1 [1]) [%] | CC50 at 72 h [2] [µM] | IC50 [3] [µM] | also measured
1 | Cc1ccc(C(=O)Nc2ccc(S(=O)(=O)O)c3cc(S(=O)(=O)O)cc(S(=O)(=O)O)c23)cc1NC(=O)c1cccc(NC(=O)Nc2cccc(C(=O)Nc3cc(C(=O)Nc4ccc(S(=O)(=O)O)c5cc(S(=O)(=O)O)cc(S(=O)(=O)O)c45)ccc3C)c2)c1 [suramin, reference compound] |  |  |  | 0.04 ± 0.02 | 
2 | COC(=O)c1cnc(Oc2cc(C3=NN(C(C)C)C(=O)[C@@H]4CC=CC[C@H]34)ccc2OC)cn1 (relative stereo) [2d, Methyl 5-(5-(cis-3-isopropyl-4-oxo-3,4,4a,5,8,8a-hexahydrophthalazin-1-yl)-2-methoxyphenoxy)pyrazine-2-carboxylate] | 0.6 ± 0.2 | ~50 | > 64 | 16 ± 10 | 
3 | COc1ccc(C2=NN(C3CCCCCC3)C(=O)[C@@H]3CC=CC[C@H]23)cc1OCCCCOc1ccc(-c2nn[nH]n2)cc1 [NPD-001] |  |  |  |  | IC50 (TbrPDEB2): 0.0124 µM
4 | COc1ccc(C2=NN(C(C)C)C(=O)[C@H]3CC=CC[C@@H]23)cc1Oc1ccc(Cn2ccnc2)cn1 (relative stereo) [2h, cis-4-(3-((5-((1H-Imidazol-1-yl)methyl)pyridin-2-yl)oxy)-4-methoxyphenyl)-2-isopropyl-4a,5,8,8a-tetrahydrophthalazin-1(2H)-one] | 1.3 ± 0.2 | ~50 | 31 ± 8 | 7.9 ± 8 | 
5 | COc1ccc(C2=NN(C(C)C)C(=O)C3CC=CCC23)cc1-c1ccc(C(=O)NCC(N)=O)cc1 (stereo not drawn) [compound 1] |  |  |  |  | IC50 [4]: 6.3 µM; Ki (TbrPDEB1 [5]): 0.1 µM; selectivity for TbrPDEB1 over hPDE4 (hPDE4B1; from Ki values): more than 10 fold; Ki (hPDE4B1; hPDE4B1 in Figure 1, read-out: hPDE4 Ki): 1.9 µM; CC50 (MRC-5 SV2 cells): 35 µM
6 | COc1ccc(C2=NN(C(C)C)C(=O)[C@H]3CC=CC[C@@H]23)cc1Oc1nccn2cnnc12 (relative stereo) [2l, cis-4-(3-([1,2,4]Triazolo[4,3-a]pyrazin-8-yloxy)-4-methoxyphenyl)-2-isopropyl-4a,5,8,8a-tetrahydrophthalazin-1(2H)-one] |  |  |  |  | TbrPDEB1 (% inh.) (TbrPDEB1 [1]): No inhibition
7 | COc1ccc(C2=NN(C(C)C)C(=O)[C@@H]3CC=CC[C@H]23)cc1Oc1cc(C(=O)O)ccn1 (relative stereo) [3f, 2-(5-(cis-3-Isopropyl-4-oxo-3,4,4a,5,8,8a-hexahydrophthalazin-1-yl)-2-methoxyphenoxy)isonicotinic acid] |  |  |  |  | TbrPDEB1 (% inh.) (TbrPDEB1 [1]): No inhibition

Further lines, with some results ahead:

Row | Ki (TbrPDEB1 [1]) [µM] | inhibition at 10 µM (TbrPDEB1 [1]) [%] | SMILES | CC50 at 72 h [2] [µM] | IC50 [3] [µM] | also measured
8 | 1.3 ± 0.3 | > 50 | CCCCNC(=O)c1cccc(Oc2cc(C3=NN(C(C)C)C(=O)[C@@H]4CC=CC[C@H]34)ccc2OC)n1 (relative stereo) [3s, N-Butyl-6-(5-(cis-3-isopropyl-4-oxo-3,4,4a,5,8,8a-hexahydrophthalazin-1-yl)-2-methoxyphenoxy)picolinamide] | > 64 | > 64 | 
9 | 0.8 ± 0.2 | ≥ 50 | COC(=O)c1ccc(Oc2cc(C3=NN(C(C)C)C(=O)[C@@H]4CC=CC[C@H]34)ccc2OC)nc1 (relative stereo) [3c, Methyl 6-(5-(cis-3-isopropyl-4-oxo-3,4,4a,5,8,8a-hexahydrophthalazin-1-yl)-2-methoxyphenoxy)nicotinate] | > 64 | 7.9 ± 8 | 
10 | 1 ± 0.2 | > 50 | COc1ccc(C2=NN(C(C)C)C(=O)[C@@H]3CC=CC[C@H]23)cc1Oc1cccc(C(=O)NCc2ccco2)n1 (relative stereo) [3w, N-(Furan-2-ylmethyl)-6-(5-(cis-3-isopropyl-4-oxo-3,4,4a,5,8,8a-hexahydrophthalazin-1-yl)-2-methoxyphenoxy)picolinamide] | > 64 | 25 ± 20 | 
11 | 0.8 ± 0.2 | ≥ 50 | COc1ccc(C2=NN(C(C)C)C(=O)[C@@H]3CC=CC[C@H]23)cc1Oc1cccc(C(N)=O)n1 (relative stereo) [3l, 6-(5-(cis-3-Isopropyl-4-oxo-3,4,4a,5,8,8a-hexahydrophthalazin-1-yl)-2-methoxyphenoxy)picolinamide] | > 64 | 16 ± 10 | 
